The values below come from US10952961B2, “Implants and constructs including hollow fibers” (priority 2015, dated 2021).

The conditions of data set [1]: diffusivity in water; cited from earlier work.
The nature of data set [2]: Diffusivity of example drug molecules in water and in broad membrane pores. It counts as physicochemical. The following applies: diffusivity within broad-pore membrane (HFHHP); unit not printed in this column, D is in cm^2/s. The source says: Assuming that the pore diameter essentially exceeds the molecule dimension, which is necessary for drug release to occur in any of the modes of drug release, Dm can be presented as product of three multipliers: diffusivity in water D, membrane porosity ε and tortuosity t0; Dm=Dεt0^−1. The maximal porosity is about 0.5. Taking into account the tortuosity t0=2, Dm˜0.25D. Vl has to be replaced by local interstitial velocity Vint. In turn, Vint can be specified as Vn(LB), when the condition 2Rlb>>Rf is valid and the fabric is placed at a small distance from LB. […] As to lm, having its value be small is desirable for the diffusion-dominated case.
[formula] This yields, E=Pe^0.5. This equation estimate E from below, i.e., the real E is essentially larger. A larger Pe means a larger role of convection in comparison with diffusion. […] But the derived equation quantifies this observation. The diffusivity D depends on the water viscosity η and on the macromolecule radius r. This dependence is described by the Stokes-Einstein equation:
[formula] where k is the Boltzman constant, T is absolute temperature. r increases with molecular weight (MW) and 100<MW<500 g/mole. This is not true for proteins and larger molecules.
With respect to broad pores of membrane in case of HFHHP, Dm≅εt0^−1D˜0.25D.

The subject of data set [3] is Pseudomonas aeruginosa PAO1 Xen41. Description: Zone of inhibition (modified Kirby-Bauer) of drug-loaded hollow fibers. It counts as cell-based. The settings on record: drug-loaded polypropylene hollow fibers (saturated solution). The procedure:
(§1) To assess the antimicrobial efficacy of drug loaded hollow fibers, we used a modified Kirby-Bauer assay where a zone of inhibition of bacterial growth was measured on a solid agar plate as is normally done in the field of microbiology. This model was used since it allowed us to capture the real time drug release from the hollow fibers and at the same time to represent a model of drug release into a soft tissue. […] Vancomycin was chosen for proof of principle with the hollow fibers devices because this antibiotic has precedent in being commonly used to combat S. aureus infection in orthopedic joint arthroplasties, where locally high concentrations are delivered by elution from both non-absorbable (polymethyl methacrylate, PMMA) and absorbable mineral cements. Ciprofloxacin was used since it is a broad spectrum antibiotic used to target Gram negative pathogens such as P. aeruginosa. In addition, water soluble fluorescein sodium was used as a model drug to assess the release of a hydrophilic water-soluble agent from the hollow fiber drug delivery system. All reagents were purchased from Sigma-Aldrich. P. aeruginosa and S. aureus are biofilm-forming pathogens commonly isolated from infected meshes and sutures, and the strains we have selected have been transformed with bioluminescent genes so that live biofilm development and activity can be tracked in real time using a photon counting camera (Xenogen IVIS imaging system, Alameda, Calif.).
(§2) A lawn of bacteria was spread out onto an LB (Luria broth) agar plate. The plate was incubated at 5% CO2 at 37° C. for 18 hours for the first challenge. The fibers were then aseptically removed from the original plate and placed on a fresh lawn of bacteria on a new plate for the second challenge and incubated as before. Drug-free hollow fibers rinsed with isopropanol alone were used as controls. Experiments were repeated in triplicate. […] The fibers were then placed on a fresh plate and re-challenged. […]

The conditions of data set [4]: room temperature; cited from earlier work.
Data set [5] can be described thus: Saturated drug solutions in normal saline used to fill hollow fibers. It counts as physicochemical.
Description: Pressure was applied on the syringe plunger until liquid drops were visibly seen to form at the open end of each of the hollow fibers.
The subject of data set [6] is Staphylococcus aureus 16MRSA Xen30. Briefly: Zone of inhibition (modified Kirby-Bauer) of drug-loaded hollow fibers. It counts as cell-based. Here is the method: as §1, §2

In the case of `Cn1c(=O)c2c(ncn2C)n(C)c1=O` [Caffeine], the “D (cm^2/s) Aqueous” value in data set [1] is on record as 4.9 × 10^−6 cm^2/s. Further, the “Dm = 0.25 D” value in data set [2] is recorded as 1.5 × 10^−6.
With `O=C(O)c1cn(C2CC2)c2cc(N3CCNCC3)c(F)cc2c1=O` [ciprofloxacin], the “challenges over which a zone of inhibition was achieved” value in data set [3] was “one challenge”.
For `CO[C@H]1/C=C/O[C@@]2(C)Oc3c(C)c(O)c4c(O)c(c(/C=N/N5CCN(C)CC5)c(O)c4c3C2=O)NC(=O)/C(C)=C\C=C\[C@H](C)[C@H](O)[C@@H](C)[C@@H](O)[C@@H](C)[C@H](OC(C)=O)[C@@H]1C` [rifampicin], the solubility in methanol result in data set [4] is “at least 50 milligrams/milliliter”.
`CN[C@H](CC(C)C)C(=O)N[C@H]1C(=O)N[C@@H](CC(N)=O)C(=O)N[C@H]2C(=O)N[C@H]3C(=O)N[C@H](C(=O)N[C@H](C(=O)O)c4cc(O)cc(O)c4-c4cc3ccc4O)[C@H](O)c3ccc(c(Cl)c3)Oc3cc2cc(c3O[C@@H]2O[C@H](CO)[C@@H](O)[C@H](O)[C@H]2O[C@H]2C[C@](C)(N)[C@H](O)[C@H](C)O2)Oc2ccc(cc2Cl)[C@H]1O` [vancomycin]: in data set [5], the “concentration of saturated solution” value was 100000 µg/mL. For the same molecule, the “period over which a zone of inhibition was achieved” value in data set [6] (drug-loaded polypropylene hollow fibers (saturated solution), repeated challenges on fresh lawns) was 2 days. For the same molecule, the “activity on the second challenge” value in data set [6] (fiber moved to a fresh plate and re-challenged) is “showed activity”.
Consider Insulin, for which the “D (cm^2/s) Aqueous” value in data set [1] is 8.3 × 10^−7 cm^2/s. In addition, the “Dm = 0.25 D” value in data set [2] is recorded as 2.5 × 10^−7.
